System: NOMO1
Assay: cell viability relative to DMSO control; higher = less cytotoxic
Settings: 48 h
Procedure, shortened: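 NOMO1, SEM and P12-Ichikawa leukemia cells spent at least four passages adapting to each medium before use. They were seeded at 500 cells/well (NOMO1, SEM) or 1000 cells/well (P12-Ichikawa) in 5 μl in 1536-well plates and pin-dosed with library compounds in DMSO at 11 threefold steps from 47 μM down to 0.79 nM. After 48 h at 37°C, CellTiter-Glo One luminescence was read. Viability is reported as a percentage of the DMSO wells on each plate, with cell-free wells as background.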

[1] = HPLM + 10% dialyzed FBS, 0.000781 µM
[2] = HPLM + 10% dialyzed FBS, 0.00234 µM
[3] = HPLM + 10% dialyzed FBS, 0.00702 µM
[4] = HPLM + 10% dialyzed FBS, 0.0211 µM
[5] = HPLM + 10% dialyzed FBS, 0.0632 µM
[6] = HPLM + 10% dialyzed FBS, 0.19 µM
[7] = HPLM + 10% dialyzed FBS, 0.569 µM
[8] = HPLM + 10% dialyzed FBS, 1.71 µM
[9] = HPLM + 10% dialyzed FBS, 5.12 µM
[10] = HPLM + 10% dialyzed FBS, 15.4 µM
[11] = HPLM + 10% dialyzed FBS, 46.1 µM
[12] = RPMI 5 mM glucose + 10% FBS, 0.000781 µM
[13] = RPMI 5 mM glucose + 10% FBS, 0.00234 µM
[14] = RPMI 5 mM glucose + 10% FBS, 0.00702 µM
[15] = RPMI 5 mM glucose + 10% FBS, 0.0211 µM
[16] = RPMI 5 mM glucose + 10% FBS, 0.0632 µM
[17] = RPMI 5 mM glucose + 10% FBS, 0.19 µM
[18] = RPMI 5 mM glucose + 10% FBS, 0.569 µM
[19] = RPMI 5 mM glucose + 10% FBS, 1.71 µM
[20] = RPMI 5 mM glucose + 10% FBS, 5.12 µM
[21] = RPMI 5 mM glucose + 10% FBS, 15.4 µM
[22] = RPMI 5 mM glucose + 10% FBS, 46.1 µM
[23] = RPMI 5 mM glucose + 10% dialyzed FBS, 0.000781 µM
[24] = RPMI 5 mM glucose + 10% dialyzed FBS, 0.00234 µM
[25] = RPMI 5 mM glucose + 10% dialyzed FBS, 0.00702 µM
[26] = RPMI 5 mM glucose + 10% dialyzed FBS, 0.0211 µM
[27] = RPMI 5 mM glucose + 10% dialyzed FBS, 0.0632 µM
[28] = RPMI 5 mM glucose + 10% dialyzed FBS, 0.19 µM
[29] = RPMI 5 mM glucose + 10% dialyzed FBS, 0.569 µM
[30] = RPMI 5 mM glucose + 10% dialyzed FBS, 1.71 µM
[31] = RPMI 5 mM glucose + 10% dialyzed FBS, 5.12 µM
[32] = RPMI 5 mM glucose + 10% dialyzed FBS, 15.4 µM
[33] = RPMI 5 mM glucose + 10% dialyzed FBS, 46.1 µM

Structure (SMILES) | cell viability [1] | cell viability [2] | cell viability [3] | cell viability [4] | cell viability [5] | cell viability [6] | cell viability [7] | cell viability [8] | cell viability [9] | cell viability [10] | cell viability [11] | cell viability [12] | cell viability [13] | cell viability [14] | cell viability [15] | cell viability [16] | cell viability [17] | cell viability [18] | cell viability [19] | cell viability [20] | cell viability [21] | cell viability [22] | cell viability [23] | cell viability [24] | cell viability [25] | cell viability [26] | cell viability [27] | cell viability [28] | cell viability [29] | cell viability [30] | cell viability [31] | cell viability [32] | cell viability [33]
C[C@@H]1CCN(C(=O)CC#N)C[C@@H]1N(C)c1ncnc2[nH]ccc12 | 93.6% | 81.7% | 91.7% | 84.4% | 97.6% | 77.1% | 94.7% | 76.3% | 83.6% | 81.9% | 73.6% | 97.2% | 84.6% | 83.3% | 75.8% | 77.8% | 72% | 73.4% | 71.8% | 81.6% | 80.9% | 75.7% | 89% | 89.1% | 84.9% | 88.4% | 87.5% | 80.7% | 69.3% | 101% | 91.9% | 88.4% | 84.7%
Cc1ccc(C(=O)Nc2cccc(C(F)(F)F)c2)cc1-c1ccc2nc(NCCN3CCOCC3)ncc2c1 | 128% | 122% | 111% | 118% | 118% | 126% | 117% | 108% | 50.7% | 29.5% | 10.8% | 115% | 106% | 125% | 113% | 123% | 114% | 116% | 103% | 57.3% | 32.7% | 10.3% | 129% | 116% | 115% | 124% | 118% | 113% | 114% | 102% | 54.2% | 33.4% | 11.6%
CC(C)=CCC/C(C)=C/CC/C(C)=C/CSc1ccccc1C(=O)O | 93.2% | 119% | 104% | 104% | 116% | 102% | 90.4% | 68.8% | 76.4% | 57.4% | 29.8% | 103% |  | 104% | 103% | 96.1% | 99.1% | 96.2% | 95.2% | 86.8% | 67.9% | 43.5% | 98.2% | 103% | 109% | 106% | 116% | 97% | 87% | 77.1% | 61.8% | 64% | 39.3%
CC(=O)OC[C@H]1O[C@@H]([S-])[C@H](OC(C)=O)[C@@H](OC(C)=O)[C@@H]1OC(C)=O.CCP(CC)CC.[Au+] | 80.7% | 84.3% | 96.5% | 92% | 75.9% | 93.7% | 96.7% | 93.8% | 31.5% | 7.92% | 5.33% | 86.7% | 99.2% | 85.4% | 96.4% | 98.4% | 104% | 106% | 89.8% | 18.8% | 6.15% | 5% | 88.3% | 96.7% | 90.5% | 96.2% | 91.7% | 94.5% | 95.4% | 88.7% | 40.8% | 5.52% | 4.43%
O=C([O-])C[C@H](O)C[C@H](O)/C=C/c1c(C2CC2)nc2ccccc2c1-c1ccc(F)cc1 | 101% | 104% | 130% | 120% | 125% | 116% | 112% | 132% | 109% | 87.7% | 12% | 108% | 116% | 122% | 114% | 111% | 112% | 116% | 134% | 109% | 97.8% | 23.7% | 114% | 109% | 110% | 122% | 116% | 119% | 129% | 115% | 101% | 86.4% | 22.9%
CCc1cc(C(N)=S)ccn1 | 110% | 117% | 112% | 130% | 118% | 131% | 133% | 119% | 142% | 134% | 118% | 118% | 125% | 127% | 119% | 126% | 132% | 119% | 131% | 130% | 141% | 139% | 126% | 116% | 102% | 126% | 137% | 121% | 137% | 123% | 123% | 145% | 133%
O=C/1NC(=O)C(=C1C2=CN=C3C=CC=C[N]23)/C4=C[N]5CCN(CC6=C5C4=CC=C6)C(=O)N7CCOCC7 |  |  |  |  |  |  |  |  |  |  |  | 109% | 121% | 137% | 136% | 140% | 146% | 144% | 127% | 144% | 128% | 144% |  |  |  |  |  |  |  |  |  |  | 
CC1=C(/C=C/C(C)=C/C=C/C(C)=C\C(=O)O)C(C)(C)CCC1 | 85.3% | 99.5% | 85.6% | 92.5% | 105% | 96.2% | 97.1% | 84.3% | 84.2% | 83.4% | 97.4% | 75.9% | 82.4% | 78.7% | 86.3% | 89.5% | 97.2% | 93.6% | 84.1% | 84.3% | 86.6% | 80.5% | 82% | 90.6% | 86% | 102% | 93.2% | 87.9% | 95.1% | 87.2% | 76.6% | 87.1% | 77.3%
